For this experiment, the target named is T1, GST fusion protein containing the Met kinase domain (Homo sapiens, UniProt P08581).
T1 construct: Purified GST fusion protein containing the Met kinase domain, Sugen, Inc
T1 sequence (P08581 1078-1345 limits assumed): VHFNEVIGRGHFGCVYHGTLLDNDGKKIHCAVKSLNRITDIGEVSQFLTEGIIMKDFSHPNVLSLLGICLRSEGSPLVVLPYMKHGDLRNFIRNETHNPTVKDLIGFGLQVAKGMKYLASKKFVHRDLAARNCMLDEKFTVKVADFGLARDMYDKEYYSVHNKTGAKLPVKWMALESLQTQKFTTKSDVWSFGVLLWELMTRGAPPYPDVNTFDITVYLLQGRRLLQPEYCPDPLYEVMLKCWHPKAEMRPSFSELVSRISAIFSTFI
In words: MET Transphosphorylation Assay (ELISA, poly(Glu,Tyr) 4:1 substrate). The following applies: met transphosphorylation of poly(glutamic acid:tyrosine 4:1) substrate; two values in a cell separated by '/'. The class given is biochemical. The method in brief:
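Poly(Glu-Tyr)-coated wells received the GST-Met kinase domain (10 ng/well) with compound in DMSO for 15 minutes. The reaction was started with ATP/MnCl2 in HEPES pH 7.5 buffer with vanadate, run 5 minutes, and stopped with EDTA. Phosphotyrosine was detected by anti-pTyr antibody, HRP secondary and ABTS/H2O2.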
In turn, `O=C(Cc1ccc(O)cc1)N/N=C1\C(=O)Nc2cc(Cl)ccc21` [II-51, (4-Hydroxy-phenyl)-acetic acid [(3Z)-6-chloro-2-oxo-1,2-dihydro-indol-3-ylidene]-hydrazide] returned an IC50 of 17 nM.

`O=C(Cc1ccc(O)cc1)N/N=C1\C(=O)Nc2ccc(S(=O)(=O)Cc3c(Cl)cccc3Cl)cc21` [Example I-8, (4-Hydroxy-phenyl)-acetic acid [(3Z)-5-(2,6-dichloro-phenylmethanesulfonyl)-2-oxo-1,2-dihydro-indol-3-ylidene]-hydrazide] gave a concentration for half-maximal inhibition (IC50) of 7 nM. Compared with the last compound, the IC50 is about 2.4-fold lower.

The compound `O=C(Cc1ccc(O)cc1)N/N=C1\C(=O)Nc2ccc([N+](=O)[O-])cc21` [II-62, (4-Hydroxy-phenyl)-acetic acid [(3Z)-5-nitro-2-oxo-1,2-dihydro-indol-3-ylidene]-hydrazide] yielded an IC50 of 96 nM.

As for `CCN(CC)CCc1cc(C)c2c(c1C)/C(=N/NC(=O)C(C)c1ccc(F)cc1)C(=O)N2` (centres unmarked) [Example I-63, 2-(4-Fluoro-phenyl)-propionic acid [(3Z)-5-(2-diethylamino-ethyl)-4,7-dimethyl-2-oxo-1,2-dihydro-indol-3-ylidene]-hydrazide], it took 1050 nM to reach half-maximal inhibition (IC50).

In turn, `O=C1Nc2ccccc2/C1=N/NC(=O)C(CO)c1ccccc1` (centres unmarked) [Example I-7, 3-Hydroxy-2-phenyl-propionic acid [(3Z)-2-oxo-1,2-dihydro-indol-3-ylidene]-hydrazide] showed an IC50 greater than 20000 nM.

Turning to `O=C(Cc1ccc(O)cc1)N/N=C1\C(=O)Nc2cccc(Cl)c21` [II-39, (4-Hydroxy-phenyl)-acetic acid [(3Z)-4-chloro-2-oxo-1,2-dihydro-indol-3-ylidene]-hydrazide], it took 8 nM to reach half-maximal inhibition (IC50).

On to `O=C(Cc1ccc(O)cc1)N/N=C1\C(=O)Nc2ccc(C(=O)O)cc21` [Example I-10, (3Z)-3-{[2-(4-Hydroxy-phenyl)-acetyl]-hydrazono}-(3Z)-2-oxo-2,3-dihydro-1H-indole-5-carboxylic acid], for which it took 900 nM to reach half-maximal inhibition (IC50). Compared with the last compound, the IC50 is about 110-fold higher.

For the compound `O=C(Cc1ccc(O)nc1)N/N=C1\C(=O)Nc2c(Cl)ccc(Cl)c21` [II-56, (6-Hydroxy-pyridin-3-yl)-acetic acid [(3Z)-4,7-dichloro-2-oxo-1,2-dihydro-indol-3-ylidene]-hydrazide], the IC50 came out at 21 nM.

Take `O=C(Cc1ccncc1)N/N=C1\C(=O)Nc2ccccc21` [II-21, Pyridin-4-yl-acetic acid [(3Z)-2-oxo-1,2-dihydro-indol-3-ylidene]-hydrazide]: the IC50 was 3100 nM.

The compound `O=C(Cc1ccc(O)cc1)N/N=C1\C(=O)Nc2c(C(=O)O)cccc21` [Example I-47, (3Z)-3-{[2-(4-Hydroxy-phenyl)-acetyl]-hydrazono}-2-oxo-2,3-dihydro-1H-indole-7-carboxylic acid] displayed a half-maximal inhibitory concentration (IC50) of 14600 nM.

Compound `CC(C)C(C(=O)N/N=C1\C(=O)Nc2ccccc21)c1ccc(O)cc1` (centres unmarked) [II-68, 2-(4-Hydroxy-phenyl)-3-methyl-butyric acid [(3Z)-2-oxo-1,2-dihydro-indol-3-ylidene)-hydrazide] had an IC50 of 1450 nM. This IC50 is about 10-fold lower than that of the compound before.

In turn, `CC(C(=O)N/N=C1\C(=O)Nc2ccc(NC(=O)CN3CCOCC3)cc21)c1ccc(F)cc1` (centres unmarked) [Example I-54] had an IC50 of 5920 nM.

Consider `CCC(C(=O)N/N=C1\C(=O)Nc2c(Cl)ccc(Cl)c21)c1ccc(OC)cc1` (centres unmarked) [II-79, 2-(4-Methoxy-phenyl)-butyric acid [(3Z)-4,7-dichloro-2-oxo-1,2-dihydro-indol-3-ylidene)-hydrazide], for which the IC50 worked out at 150 nM.

As to `O=C(Cc1ccc(O)c([N+](=O)[O-])c1)N/N=C1\C(=O)Nc2ccccc21` [II-46, (4-Hydroxy-3-nitro-phenyl)-acetic acid [(3Z)-2-oxo-1,2-dihydro-indol-3-ylidene]-hydrazide], half-maximal inhibition (IC50) required 610 nM.

`O=C(Cc1ccc(O)cc1)N/N=C1\C(=O)Nc2ccc(OC(F)(F)F)cc21` [Example I-17, (4-Hydroxy-phenyl)-acetic acid [(3Z)-2-oxo-5-trifluoromethoxy-1,2-dihydro-indol-3-ylidene]-hydrazide] returned an IC50 of 58 nM.

`O=C(Cc1ccc2c(c1)OCO2)N/N=C1\C(=O)Nc2ccc(S(=O)(=O)NCCN3CCOCC3)cc21` [Example I-31, (3Z)-3-[(2-Benzo[1,3]dioxol-5-yl-acetyl)-hydrazono]-2-oxo-2,3-dihydro-1H-indole-5-sulfonic acid (2-morpholin-4-yl-ethyl)-amide] displayed a half-inhibitory concentration (IC50) of 320 nM.

As to `CC(C(=O)N/N=C1\C(=O)Nc2ccc(O)c(Cl)c21)c1ccc(F)cc1` (centres unmarked) [II-105, 2-(4-Fluoro-phenyl)-propionic acid [(3Z)-4-chloro-5-hydroxy-2-oxo-1,2-dihydro-indol-3-ylidene)-hydrazide], it took 420 nM to reach half-maximal inhibition (IC50).

For `COc1ccc(CC(=O)N/N=C2\C(=O)Nc3c(Cl)ccc(Cl)c32)cc1C` [II-70, (4-Methoxy-3-methyl-phenyl)-acetic acid [(3Z)-4,7-dichloro-2-oxo-1,2-dihydro-indol-3-ylidene]-hydrazide], the IC50 is greater than 20000 nM.

For `O=C(Cc1ccc(Br)cc1)N/N=C1\C(=O)Nc2ccccc21` [II-34, (4-Bromo-phenyl)-acetic acid [(3Z)-2-oxo-1,2-dihydro-indol-3-ylidene]-hydrazide], the IC50 was greater than 20000 nM.

In turn, `O=C(Cc1cc(=O)[nH]c(=O)[nH]1)N/N=C1\C(=O)Nc2c(Cl)ccc(Cl)c21` [II-82, (2,6-Dioxo-1,2,3,6-tetrahydro-pyrimidin-4-yl)-acetic acid [(3Z)-4,7-dichloro-2-oxo-1,2-dihydro-indol-3-ylidene]-hydrazide] came in with an IC50 greater than 20000 nM.

Compound `Cc1c(Br)ccc2c1/C(=N/NC(=O)Cc1ccc(O)cc1)C(=O)N2` [II-35, (4-Hydroxy-phenyl)-acetic acid [(3Z)-5-bromo-4-methyl-2-oxo-1,2-dihydro-indol-3-ylidene)-hydrazide] had an IC50 of 16 nM.

`Cc1ccc(C)c2c1NC(=O)/C2=N\NC(=O)C1Cc2ccccc2C1` [Example I-58, Indan-2-carboxylic acid [(3Z)-4,7-dimethyl-2-oxo-1,2-dihydro-indol-3-ylidene]-hydrazide] gave an IC50 greater than 20000 nM.

The compound `O=C(Cc1ccccc1)N/N=C1\C(=O)Nc2ccccc21` [II-6, Phenyl-acetic acid [(3E)-2-oxo-1,2-dihydro-indol-3-ylidene]-hydrazide] displayed a 50% inhibitory concentration (IC50) greater than 20000 nM.

In turn, `O=C(Cc1ccc(O)c(Cl)c1)N/N=C1\C(=O)Nc2ccc(C(=O)O)c(Cl)c21` [Example I-37, (3Z)-4-Chloro-3-{[2-(3-chloro-4-hydroxy-phenyl)-acetyl]-hydrazono}-2-oxo-2,3-dihydro-1H-indole-5-carboxylic acid] yielded an IC50 of 29 nM.

As to `Cn1cc(CC(=O)N/N=C2\C(=O)Nc3ccc(C(=O)O)c(Cl)c32)ccc1=O` [Example I-34, (3Z)-4-Chloro-3-{[2-(1-methyl-6-oxo-1,6-dihydro-pyridin-3-yl)-acetyl]-hydrazono}-2-oxo-2,3-dihydro-1H-indole-5-carboxylic acid], the IC50 is 2080 nM.

Consider `CC(C(=O)N/N=C1\C(=O)Nc2ccc(C(=O)O)c(Cl)c21)c1ccc(F)cc1` (centres unmarked) [Example I-29, (3Z)-4-Chloro-3-{[2-(4-fluoro-phenyl)-propionyl]-hydrazono}-2-oxo-2,3-dihydro-1H-indole-5-carboxylic acid], for which the IC50 is 230 nM. This IC50 lies about 9-fold lower than the previous one.

As to `Cc1ccc(C)c2c1NC(=O)/C2=N\NC(=O)Cc1ccc(O)cc1` [II-31, (4-Hydroxy-phenyl)-acetic acid [(3Z)-4,7-dimethyl-2-oxo-1,2-dihydro-indol-3-ylidene]-hydrazide], the IC50 was found to be 15 nM. Compared with the last compound, the IC50 is about 15-fold lower.

The compound `COc1ccc(CC(=O)N/N=C2\C(=O)Nc3ccc(C(=O)O)c(Cl)c32)cc1C#N` [II-110, (3Z)-4-Chloro-3-{[2-(3-cyano-4-methoxy-phenyl)-acetyl]-hydrazono}-2-oxo-2,3-dihydro-1H-indole-5-carboxylic acid] returned an IC50 greater than 20000 nM.

`O=C(Cc1ccc(O)cc1)N/N=C1\C(=O)Nc2ccc(F)cc21` [II-19, (4-Hydroxy-phenyl)-acetic acid [(3Z)-5-fluoro-2-oxo-1,2-dihydro-indol-3-ylidene]-hydrazide] yielded a concentration for half-maximal inhibition (IC50) of 29 nM.

With `CN1CCN(S(=O)(=O)c2ccc3c(c2)/C(=N/NC(=O)Cc2ccc(O)cc2)C(=O)N3)CC1` [Example I-25, (4-Hydroxy-phenyl)-acetic acid [(3Z)-5-(4-methyl-piperazine-1-sulfonyl)-2-oxo-1,2-dihydro-indol-3-ylidene]-hydrazide], half-maximal inhibition (IC50) was put at 77 nM. Against the preceding compound, the IC50 is about 2.7-fold higher.

For the compound `O=C(Cc1ccc(O)cc1)N/N=C1\C(=O)Nc2c(Cl)cccc21` [II-36, (4-Hydroxy-phenyl)-acetic acid [(3Z)-7-chloro-2-oxo-1,2-dihydro-indol-3-ylidene]-hydrazide], it took 22 nM to reach half-maximal inhibition (IC50). Against the preceding compound, the IC50 is about 3.5-fold lower.

As for `COC(=O)c1ccc2c(c1)/C(=N/NC(=O)Cc1ccc(O)cc1)C(=O)N2` [Example I-11, (3Z)-3-{[2-(4-Hydroxy-phenyl)-acetyl]-hydrazono}-(3Z)-2-oxo-2,3-dihydro-1H-indole-5-carboxylic acid methyl ester], half-maximal inhibition (IC50) required 43 nM. This IC50 lies about 2-fold higher than the previous one.

`O=C(Cc1ccc(O)cc1)N/N=C1\C(=O)Nc2c(Br)cc(Cl)cc21` [II-32, (4-Hydroxy-phenyl)-acetic acid [(3Z)-7-bromo-5-chloro-2-oxo-1,2-dihydro-indol-3-ylidene]-hydrazide] returned an IC50 of 54 nM. The IC50 values of the last two compounds are within 1.5-fold of each other.

`CC(C)(C(=O)N/N=C1\C(=O)Nc2c(Cl)ccc(Cl)c21)c1ccc(Cl)cc1` [II-91, 2-(4-Chloro-phenyl)-2-methyl-propionic acid [(3Z)-4,7-dichloro-2-oxo-1,2-dihydro-indol-3-ylidene]-hydrazide]: the concentration for half-maximal inhibition (IC50) is greater than 20000 nM.

`CC(C(=O)N/N=C1\C(=O)Nc2cccc(-c3cccc(F)c3)c21)c1ccc(O)cc1` (centres unmarked) [Example I-16, 2-(4-Hydroxy-phenyl)-propionic acid [(3Z)-4-(3-fluoro-phenyl)-2-oxo-1,2-dihydro-indol-3-ylidene]-hydrazide]: the half-inhibitory concentration (IC50) was 140 nM.

For the origin of these results see patent US20060009493A1, “Indolinone hydrazides as c-Met inhibitors” (Sugen, Inc., priority 2003, published 2006).
